Patent US20070243238A1, “Treating mouth sores with patches adhered to teeth” (priority 2006, published 2007)

System: mouth sores
Assay: Experimentation with amoxicillin on conventional patches for mouth sores
Format: in vivo, human
Conditions: amoxicillin powder for oral suspension massaged into conventional patch and dried
From the text: Because use of antibiotics, antibacterials, and other pharmaceutical antimicrobials causes adverse side effects, experimentation with these medications has been limited. […] Conventional amoxicillin powder for preparation of oral suspension was used, which includes sugars and other excipients. The sugars act as a binder to the oral patch. The oral suspension is massaged into the patch and dried. Preferably, the amoxicillin powder is mixed into a stronger than normal liquid before being added to the patch.

Which “effect of medication on patch in treating mouth sores” value does the source give for `CC1(C)S[C@@H]2[C@H](NC(=O)[C@H](N)c3ccc(O)cc3)C(=O)N2[C@H]1C(=O)O` [amoxicillin] here?
Its value is “works quite well”.
